# Test results as given in patent publication EP4678638A1, “NEW E3 UBIQUITIN LIGASE LIGAND, PROTEIN DEGRADATION AGENT AND USE THEREOF” (priority 2023, dated 2024).
# Test system: H1975
# Assay: CCK-8 proliferation, NCI-H1975 (H1975)
# Type: cell-based, Human
# Conditions: Homo sapiens, NCI-H1975; CCK-8; 96 hours; read-out: Inhibitory activity (IC50) on tumor cell proliferation, H1975
# Experimental: The tumor cells used herein were cultured in a cell culture medium listed in table A1 at 37°C in an incubator with 5% CO2. Prior to experimentation, all cell lines used were correctly identified by STR profiling, and tested negative for mycoplasma contamination using a mycoplasma detection kit through routine screenings. Table A1. Tumor cells and cell culture medium used in the present disclosure
# IC50 values of the compounds of the present disclosure (including the compounds in Table 1, and compounds of examples) were measured using the Meilun Cell Counting Kit-8 kit from Dalian Meilun Biotech Co., Ltd. Assay details are as follows: tumor cells were seeded in a 96-well plate at a density listed in Table A2. After 24h, 100 µL of the inoculated cells were treated with 0.5µL of the compounds of the present disclosure (including the compounds in Tables 1 and 2, and compounds of examples) at 10 different successively decreasing concentrations (starting at the highest concentration of 10µM; 5-fold serial dilutions). After the cells were treated with the compounds of the present disclosure for a period of time, the cell viability detection reagent was added to the culture medium for cell viability assessment according to the instructions provided with the CCK-8 kit. […] The growth inhibition of the compounds of the present disclosure on cells was plotted by Prism Graphpad software, and the IC50 values of the compounds of the present disclosure were calculated therefrom. […] Seeding protocol and treatment time for tumor cells
row,IC50 [nM],SMILES
1,1 to 10,"CN(Cc1ccc(C2CCC(=O)NC2=O)cc1)C1CCN(c2ccc(-c3cc(F)c4c(c3)C(=O)N(C(C(=O)Nc3nccs3)c3ncn5c3CCC5)C4)cc2)CC1 (centres unmarked) [GT-05218, 2-(6,7-dihydro-5H-pyrrolo[1,2-c]imidazol-1-yl)-2-(6-(4-(4-((4-(2,6-dioxopiperidin-3-yl)benzyl)(methyl)amino)piperidin-1-yl)phenyl)-4-fluoro-1-oxoisoindolin-2-yl)-N-(thiazol-2-yl)acetamide]"
2,1 to 10,"CN(Cc1ccc(N2CCC(=O)NC2=O)cc1)C1CCN(c2ccc(-c3cc(F)c4c(c3)C(=O)N(C(C(=O)Nc3nccs3)c3ncn5c3CCC5)C4)cc2)CC1 (centres unmarked) [GT-05219, 2-(6,7-dihydro-5H-pyrrolo[1,2-c]imidazol-1-yl)-2-(6-(4-(4-((4-(2,4-dioxotetrahydropyrimidin-1(2H)-yl)benzyl)(methyl)amino)piperidin-1-yl)phenyl)-4-fluoro-1-oxoisoindolin-2-yl)-N-(thiazol-2-yl)acetamide]"
3,1 to 10,"CN(Cc1cccc(N2CCC(=O)NC2=O)c1)C1CCN(c2ccc(-c3cc(F)c4c(c3)C(=O)N(C(C(=O)Nc3nccs3)c3ncn5c3CCC5)C4)cc2)CC1 (centres unmarked) [GT-05281, 2-(6,7-dihydro-5H-pyrrolo[1,2-c]imidazol-1-yl)-2-(6-(4-(4-((3-(2,4-dioxotetrahydropyrimidin-1(2H)-yl)benzyl)(methyl)amino)piperidin-1-yl)phenyl)-4-fluoro-1-oxoisoindolin-2-yl)-N-(thiazol-2-yl)acetamide]"
4,1 to 10,"CN(Cc1ccc(N2CCC(=O)NC2=O)cn1)C1CCN(c2ccc(-c3cc(F)c4c(c3)C(=O)N(C(C(=O)Nc3nccs3)c3ncn5c3CCC5)C4)cc2)CC1 (centres unmarked) [GT-05282, 2-(6,7-dihydro-5H-pyrrolo[1,2-c]imidazol-1-yl)-2-(6-(4-(4-(((5-(2,4-dioxotetrahydropyrimidin-1(2H)-yl)pyridin-2-yl)methyl)(methyl)amino)piperidin-1-yl)phenyl)-4-fluoro-1-oxoisoindolin-2-yl)-N-(thiazol-2-yl)acetamide]"
5,1 to 10,"CN(Cc1ccc(N2CCC(=O)NC2=O)nc1)C1CCN(c2ccc(-c3cc(F)c4c(c3)C(=O)N(C(C(=O)Nc3nccs3)c3ncn5c3CCC5)C4)cc2)CC1 (centres unmarked) [GT-05283, 2-(6,7-dihydro-5H-pyrrolo[1,2-c]imidazol-1-yl)-2-(6-(4-(4-(((6-(2,4-dioxotetrahydropyrimidin-1(2H)-yl)pyridin-3-yl)methyl)(methyl)amino)piperidin-1-yl)phenyl)-4-fluoro-1-oxoisoindolin-2-yl)-N-(thiazol-2-yl)acetamide]"
6,1 to 10,"O=C1CCC(c2ccc(CN3C[C@H]4C[C@@H]3CN4c3ccc(-c4cc(F)c5c(c4)C(=O)N(C(C(=O)Nc4nccs4)c4ncn6c4CCC6)C5)cc3)cc2)C(=O)N1 (stereo partly drawn) [GT-06176, 2-(6,7-dihydro-5H-pyrrolo[1,2-c]imidazol-1-yl)-2-(6-(4-((1R,4R)-5-(4-(2,6-dioxopiperidin-3-yl)benzyl)-2,5-diazabicyclo[2.2.1]heptan-2-yl)phenyl)-4-fluoro-1-oxoisoindolin-2-yl)-N-(thiazol-2-yl)acetamide]"
7,10 to 50,"O=C1CCC(Nc2cccc(CN3C[C@H]4C[C@@H]3CN4c3ccc(-c4cc(F)c5c(c4)C(=O)N(C(C(=O)Nc4nccs4)c4ncn6c4CCC6)C5)cc3)c2)C(=O)N1 (stereo partly drawn) [GT-06179, 2-(6,7-dihydro-5H-pyrrolo[1,2-c]imidazol-1-yl)-2-(6-(4-((1R,4R)-5-(3-((2,6-dioxopiperidin-3-yl)amino)benzyl)-2,5-diazabicyclo[2.2.1]heptan-2-yl)phenyl)-4-fluoro-1-oxoisoindolin-2-yl)-N-(thiazol-2-yl)acetamide]"
8,1 to 10,"O=C1CCN(c2ccc(CN3C[C@H]4C[C@@H]3CN4c3ccc(-c4cc(F)c5c(c4)C(=O)N(C(C(=O)Nc4nccs4)c4ncn6c4CCC6)C5)cc3)cn2)C(=O)N1 (stereo partly drawn) [GT-06191, 2-(6,7-dihydro-5H-pyrrolo[1,2-c]imidazol-1-yl)-2-(6-(4-((1R,4R)-5-((6-(2,4-dioxotetrahydropyrimidin-1(2H)-yl)pyridin-3-yl)methyl)-2,5-diazabicyclo[2.2.1]heptan-2-yl)phenyl)-4-fluoro-1-oxoisoindolin-2-yl)-N-(thiazol-2-yl)acetamide]"
9,1 to 10,"O=C1CCN(c2ccc(CN3CCC(N4CCN(c5ccc(-c6cc(F)c7c(c6)C(=O)N(C(C(=O)Nc6nccs6)c6ncn8c6CCC8)C7)cc5)CC4)CC3)cc2)C(=O)N1 (centres unmarked) [GT-06327, 2-(6,7-dihydro-5H-pyrrolo[1,2-c]imidazol-1-yl)-2-(6-(4-(4-(1-(4-(2,4-dioxotetrahydropyrimidin-1(2H)-yl)benzyl)piperidin-4-yl)piperazin-1-yl)phenyl)-4-fluoro-1-oxoisoindolin-2-yl)-N-(thiazol-2-yl)acetamide]"
10,1 to 10,"O=C1CCN(c2cccc(CN3CCC(N4CCN(c5ccc(-c6cc(F)c7c(c6)C(=O)N(C(C(=O)Nc6nccs6)c6ncn8c6CCC8)C7)cc5)CC4)CC3)c2)C(=O)N1 (centres unmarked) [GT-06328, 2-(6,7-dihydro-5H-pyrrolo[1,2-c]imidazol-1-yl)-2-(6-(4-(4-(1-(3-(2,4-dioxotetrahydropyrimidin-1(2H)-yl)benzyl)piperidin-4-yl)piperazin-1-yl)phenyl)-4-fluoro-1-oxoisoindolin-2-yl)-N-(thiazol-2-yl)acetamide]"
11,1 to 10,"O=C1CCN(c2cc(CN3CCN(c4ccc(-c5cc(F)c6c(c5)C(=O)N(C(C(=O)Nc5nccs5)c5ncn7c5CCC7)C6)cc4)CC3)c(F)cn2)C(=O)N1 (centres unmarked) [GT-07378, 2-(6,7-dihydro-5H-pyrrolo[1,2-c]imidazol-1-yl)-2-(6-(4-(4-((2-(2,4-dioxotetrahydropyrimidin-1(2H)-yl)-5-fluoropyridin-4-yl)methyl)piperazin-1-yl)phenyl)-4-fluoro-1-oxoisoindolin-2-yl)-N-(thiazol-2-yl)acetamide]"
12,1 to 10,"O=C1CCN(c2cc(CN3CCN(c4ccc(-c5cc(F)c6c(c5)C(=O)N(C(C(=O)Nc5nccs5)c5ncn7c5CCC7)C6)cc4)CC3)ccn2)C(=O)N1 (centres unmarked) [GT-07379, 2-(6,7-dihydro-5H-pyrrolo[1,2-c]imidazol-1-yl)-2-(6-(4-(4-((2-(2,4-dioxotetrahydropyrimidin-1(2H)-yl)pyridin-4-yl)methyl)piperazin-1-yl)phenyl)-4-fluoro-1-oxoisoindolin-2-yl)-N-(thiazol-2-yl)acetamide]"

row,SMILES,IC50 [nM]
1,"O=C1CCC(c2ccc(CN3C4CCC3CN(c3ccc(-c5cc(F)c6c(c5)C(=O)N(C(C(=O)Nc5nccs5)c5ncn7c5CCC7)C6)cc3)C4)cc2)C(=O)N1 (centres unmarked) [GT-06252, 2-(6,7-dihydro-5H-pyrrolo[1,2-c]imidazol-1-yl)-2-(6-(4-(8-(4-(2,6-dioxopiperidin-3-yl)benzyl)-3,8-diazabicyclo[3.2.1]octan-3-yl)phenyl)-4-fluoro-1-oxoisoindolin-2-yl)-N-(thiazol-2-yl)acetamide]",1 to 10
2,"O=C1CCN(c2ccc(CN3C4CCC3CN(c3ccc(-c5cc(F)c6c(c5)C(=O)N(C(C(=O)Nc5nccs5)c5ncn7c5CCC7)C6)cc3)C4)nc2)C(=O)N1 (centres unmarked) [GT-06255, 2-(6,7-dihydro-5H-pyrrolo[1,2-c]imidazol-1-yl)-2-(6-(4-(8-((5-(2,4-dioxotetrahydropyrimidin-1(2H)-yl)pyridin-2-yl)methyl)-3,8-diazabicyclo[3.2.1]octan-3-yl)phenyl)-4-fluoro-1-oxoisoindolin-2-yl)-N-(thiazol-2-yl)acetamide]",1 to 10
